Experimental data: patent US20240209011A1, “HETEROAROMATIC PHOSPHONIUM SALTS FOR TREATING CANCER” (FLORATEK PHARMA S.A., priority 2021, published 2024)

Legend:
Type in all cases: cell-based
leukaemia cell = test: Activity against leukaemia cells; conditions: leukaemia cell growth; Tables 13A and 13B
Description: (§1) Antitumor activity of the compounds and doxorubicin as a positive control was assessed by using the CellTiter-Blue Cell Viability Assay (Promega, #G8082) or CellTiter-Glow® Luminescent Cell Viability assay (Promega #G7572) according to the manufacturer's instructions. The compounds were tested at 5 or 6 concentrations in half-log increments (highest concentration 30 μM or 100 μM) in duplicate or triplicate well conditions.
(§2) Tumor cells were grown at 37° C. in a humidified atmosphere with 5% CO2 in RPMI 1640 or DMEM medium, supplemented with 10% (v/v) fetal calf serum and 50 μg/ml gentamicin for up to 20 passages, and were passaged once or twice weekly. Cells were harvested using TrypLE or PBS buffer containing 1 mM EDTA, and the percentage of viable cells is determined using a CASY Model TI cell counter (OMNI Life Science). Cells were harvested from exponential phase cultures, counted and plated in 96 well flat-bottom microtiter plates at a cell density depending on the cell line's growth rate (4,000-20,000 cells/well depending on the cell line's growth rate, up to 60,000 for hematological cancer cell lines) in RPMI 1640 or DMEM medium supplemented with 10% (v/v) fetal calf serum and 50 μg/ml gentamicin (140 μl/well). Cultures were incubated at 37° C. and 5% CO2 in a humidified atmosphere. After 24 h, 10 μl of test compounds or control medium were added, and left on the cells for another 72 h. Compounds were serially diluted in DMSO, transferred in cell culture medium, and added to the assay plates. The DMSO concentration was kept constant at <0.3% v/v across the assay plate. Viability of cells was quantified by the CellTiter-Blue® cell viability assay (Promega G8081) or CellTiter-Glow® Luminescent Cell Viability assay (Promega #G7572). Fluorescence (FU) was measured by using the EnSpire® multimode plate reader (Perkin Elmer) (excitation X=570 nm, emission λ=600 nm). Luminescence was measured with a microplate luminometer (Promega or PerkinElmer).
(§3) Sigmoidal concentration-response curves were fitted to the data points (test-versus-control, T/C values) obtained for each tumor model using 4 parameter non-linear curve fit (Charles River DRS Datawarehouse Software) or with GraphPad prism 5.02 software. IC50 values are reported as absolute IC50 values, being the concentration of test compound at the intersection of the concentration-response curves with T/C=50% Cell lines tested are presented in Table 1.

prostate cancer cell = test: Activity against prostate cancer cells; conditions: prostate cancer cell growth; text summary of Table 21
Description: as §1, §2, §3

SF-268 = test: Cell viability assay (CellTiter-Blue/CellTiter-Glow); conditions: Homo sapiens; brain carcinoma cell line SF-268; absolute IC50; 72 h
Description: as §1, §2, §3

PC-3 = test: as above; conditions: Homo sapiens; prostate carcinoma cell line PC-3; absolute IC50; 72 h
Description: as §1, §2, §3

LNCaP = test: as above; conditions: Homo sapiens; prostate carcinoma cell line LNCaP; absolute IC50; 72 h
Description: as §1, §2, §3

HL-60 = test: as above; conditions: Homo sapiens; leukaemia cell line HL-60; absolute IC50; 72 h
Description: as §1, §2, §3

MCF-7 = test: as above; conditions: Homo sapiens, MCF7; breast carcinoma cell line MCF-7; absolute IC50; 72 h
Description: as §1, §2, §3

Mia-Pa-Ca-2 = test: as above; conditions: Homo sapiens, MIA PaCa-2; pancreatic carcinoma cell line Mia-Pa-Ca-2; absolute IC50; 72 h
Description: as §1, §2, §3

MDA-MB-468 = test: as above; conditions: Homo sapiens; breast carcinoma cell line MDA-MB-468; absolute IC50; 72 h
Description: as §1, §2, §3

22Rv1 = test: as above; conditions: Homo sapiens; prostate carcinoma cell line 22Rv1; absolute IC50; 72 h
Description: as §1, §2, §3

HCT-116 = test: as above; conditions: Homo sapiens; colon carcinoma cell line HCT-116; absolute IC50; 72 h
Description: as §1, §2, §3

LoVo = test: as above; conditions: Homo sapiens; colon carcinoma cell line LoVo; absolute IC50; 72 h
Description: as §1, §2, §3

OVCAR-3 = test: as above; conditions: Homo sapiens; ovarian carcinoma cell line OVCAR-3; absolute IC50; 72 h
Description: as §1, §2, §3

ovarian cancer cell = test: Activity against ovarian cancer cells; conditions: ovarian cancer cell growth; Tables 18A-18C
Description: as §1, §2, §3

colon cancer cell = test: Activity against colon cancer cells; conditions: colon cancer cell growth; summary of Tables 7A-7D
Description: as §1, §2, §3

pancreatic cancer cell = test: Activity against pancreatic cancer cells; conditions: pancreatic cancer cell growth; Table 19A
Description: as §1, §2, §3

breast cancer cell = test: Activity against breast cancer cells; conditions: breast cancer cell growth; Tables 5A and B
Description: as §1, §2, §3

brain cancer cell = test: Activity against brain cancer cells; conditions: brain cancer cell growth; Tables 4A-4D
Description: as §1, §2, §3

HCT-15 = test: Cell viability assay (CellTiter-Blue/CellTiter-Glow); conditions: Homo sapiens; colon carcinoma cell line HCT-15; absolute IC50; 72 h
Description: as §1, §2, §3

U-87 = test: as above; conditions: Homo sapiens, U-87 MG; brain carcinoma cell line U-87; absolute IC50; 72 h
Description: as §1, §2, §3

K-562 = test: as above; conditions: Homo sapiens, K562; leukaemia cell line K-562; absolute IC50; 72 h
Description: as §1, §2, §3

SK-OV-3 = test: as above; conditions: Homo sapiens; ovarian carcinoma cell line SK-OV-3; absolute IC50; 72 h
Description: as §1, §2, §3

HT-29 = test: as above; conditions: Homo sapiens; colon carcinoma cell line HT-29; absolute IC50; 72 h
Description: as §1, §2, §3

CALU-6 = test: as above; conditions: Homo sapiens; lung carcinoma cell line CALU-6; absolute IC50; 72 h
Description: as §1, §2, §3

NCI-H460 = test: as above; conditions: Homo sapiens; lung carcinoma cell line NCI-H460; absolute IC50; 72 h
Description: as §1, §2, §3

Compound | IC50 (OVCAR-3) [µM] | IC50 (U-87) [µM] | IC50 (HT-29) [µM] | IC50 (leukaemia cell) [µM] | IC50 (prostate cancer cell) [µM] | IC50 (SF-268) [µM] | IC50 (PC-3) [µM] | IC50 (LNCaP) [µM] | IC50 (HL-60) [µM] | IC50 (MCF-7) [µM] | IC50 (Mia-Pa-Ca-2) [µM] | IC50 (MDA-MB-468) [µM] | IC50 (22Rv1) [µM] | IC50 (HCT-116) [µM] | IC50 (LoVo) [µM] | IC50 (ovarian cancer cell) [µM] | IC50 (colon cancer cell) [µM] | IC50 (pancreatic cancer cell) [µM] | IC50 (breast cancer cell) [µM] | IC50 (brain cancer cell) [µM] | further results
CCNC(=O)Oc1ccc2c(=O)cc(-c3ccc(CCCC[P+](c4ccccc4)(c4ccccc4)c4ccccc4)cc3)oc2c1O.[Br-] [SND126A, 4-[4-[7-(Ethylcarbamoyloxy)-8-hydroxy-4-oxo-chromen-2-yl]phenyl]butyltriphenylphosphonium bromide] | 6.54 |  |  | < 20 | < 10 | 10.7 | 2.91 | 1.95 | 0.58 | 12.9 | 0.96 | 0.56 | 2.39 | 3.56 | 2.94 | < 20 | < 20 | < 20 | < 20 | < 20 | 
CCNC(=O)Oc1ccc2c(=O)cc(-c3ccc(CCCC[P+](c4ccccc4)(c4ccccc4)c4ccccc4)cc3)oc2c1OC(=O)NCC.[Br-] [SND124, 4-[4-[7,8-Bis(ethylcarbamoyloxy)-4-oxo-chromen-2-yl]phenyl]-butyltriphenylphosphonium bromide] |  | 1.18 | 2.96 | < 20 | < 10 |  | 6.3 | 4 | 0.29 | 2 | 4.8 | 0.5 | 3.4 | 4.2 | 21.4 | < 20 | < 20 | < 20 | < 20 | < 20 | IC50 (HCT-15): 10 µM; IC50 (K-562): 0.02 µM; IC50 (SK-OV-3): 3.4 µM
CC(C)NC(=O)Oc1ccc2c(=O)cc(-c3ccc(CCCC[P+](c4ccccc4)(c4ccccc4)c4ccccc4)cc3)oc2c1O [SND127, 4-[4-[7-(Isopropylcarbamoyloxy)-8-hydroxy-4-oxo-chromen-2-yl]phenyl]butyltriphenylphosphonium bromide] | 5.7 | 3.8 | 6.4 | < 20 | < 10 | 11.9 | 5.5 | 2 | 1.54 | 6.7 | 1.81 | 0.6 | 3.3 | 6.2 | 8.4 | < 20 | < 20 | < 20 | < 20 | < 20 | IC50 (CALU-6): 7.13 µM; IC50 (K-562): 1.23 µM; IC50 (SK-OV-3): 11.5 µM; IC50 (NCI-H460): 5.58 µM

Second part, led by results:

IC50 (OVCAR-3) [µM] | IC50 (U-87) [µM] | IC50 (HT-29) [µM] | Compound | IC50 (leukaemia cell) [µM] | IC50 (prostate cancer cell) [µM] | IC50 (SF-268) [µM] | IC50 (PC-3) [µM] | IC50 (LNCaP) [µM] | IC50 (HL-60) [µM] | IC50 (MCF-7) [µM] | IC50 (Mia-Pa-Ca-2) [µM] | IC50 (MDA-MB-468) [µM] | IC50 (22Rv1) [µM] | IC50 (HCT-116) [µM] | IC50 (LoVo) [µM] | IC50 (ovarian cancer cell) [µM] | IC50 (colon cancer cell) [µM] | IC50 (pancreatic cancer cell) [µM] | IC50 (breast cancer cell) [µM] | IC50 (brain cancer cell) [µM] | further results
7.3 | 1.76 | 10.3 | O=c1cc(-c2ccc(CCCC[P+](c3ccccc3)(c3ccccc3)c3ccccc3)cc2)oc2c(O)c(O)ccc12 [SND118, 4-[4-(7,8-dihydroxy-4-oxo-chromen-2-yl)phenyl]butyltriphenyl-phosphonium bromide] | < 20 | < 10 | 15.6 | 5.3 | 1.87 | 0.29 | 0.86 | 1.9 | 0.32 | 5.1 | 1.53 | 7.9 | < 20 | < 20 | < 20 | < 20 | < 20 | IC50 (CALU-6): 1.47 µM; IC50 (HCT-15): 3.3 µM; IC50 (K-562): 0.14 µM; IC50 (SK-OV-3): 6.35 µM; IC50 (NCI-H460): 0.29 µM
2.36 | 0.87 | 9.3 | O=c1cc(-c2ccc(CCCC[P+](c3ccccc3)(c3ccccc3)c3ccccc3)cc2)oc2c3c(ccc12)OCO3.[Br-] [SND123, 4-[4-(6-oxo-[1,3]dioxolo[4,5-h]chromen-8-yl)phenyl]butyl-triphenylphosphonium bromide] | < 20 | < 10 | 3.15 | 1.89 | 1.37 | 1.08 | 6.87 | 1.32 | 0.36 | 1.49 | 2.25 | 1.7 | < 20 | < 20 | < 20 | < 20 | < 20 | IC50 (CALU-6): 1.14 µM; IC50 (HCT-15): 9.3 µM; IC50 (NCI-H460): 5.04 µM
8.87 | 5.4 | 14.2 | COc1c(O)ccc2c(=O)cc(-c3ccc(CCCC[P+](c4ccccc4)(c4ccccc4)c4ccccc4)cc3)oc12.[Br-] [SND140, (4-(4-(7-hydroxy-8-methoxy-4-oxo-4H-chromen-2-yl)phenyl)butyl)triphenylphosphonium bromide] | < 20 | < 10 | 9.5 | 8.31 | 6.23 | 0.9 | 4.3 |  | 2.8 | 9 | 10.6 | 16.3 | < 20 | < 20 | < 20 | < 20 | < 20 | IC50 (CALU-6): 3.8 µM; IC50 (NCI-H460): 10.8 µM
